# In patent US4599352A, “Antineoplastic platinum (IV) complexes and compositions” (priority 1984, dated 1986):
# Tests used:
# [1] = tested on: SC Implanted L1210 Leukemia; experiment: Activity against SC implanted L1210 leukemia following intravenous administration, once daily Days 1-5 (Table 5); type: in vivo, CD2Fl male mice
# Description: (§1) Biological properties of the compounds of the present invention were determined following the protocol described in Cancer Chemotherapy Reports, Vol. 3, No. 3, 1972 which report is incorporated herein by reference.
# In another type of experiment the same platinum complexes were directly compared against the SC implanted L1210 following intravenous administration (Table 5).
# This experiment (A8-00004 3LE32) was conducted at the Southern Research Institute, Birmingham, Ala. under the supervision of Dr. Daniel Griswold. The protocols were the same as those published previously (Attachment 11). 10^6 cells were implanted subcutaneously in CD2Fl male mice on Day 0. Drug treatments were given intravenously once daily at the doses indicated on Days 1-5 after tumor implantation. The dosage range tested included the highest and lowest doses indicated in the Table as well as intermediate values which were determined by multiplying each dose in turn by 0.5 starting with the highest dose. The diluent was saline except for NSC-271674 for which 5% sodium bicarbonate was used. All drugs were prepared fresh on the day of injection, and all were administered in solution. Median survival times for both control and drug-treated mice were determined and expressed as a percentage (% T/C). Body weights were determined on Day 5 and expressed as a weight difference (body weight of the drug-treated animals minus that of the control animals in grams) (T-C).
# [2] = tested on: IP-Implanted L1210 Leukemia; experiment: Dose-response against IP-implanted L1210 leukemia, IP treatment Days 1, 5 and 9, 30-day test (Table 2); type: in vivo, CD2Fl male mice
# Description: as §1
# (§2) This experiment (A8-00005 3LE31) was conducted at the Southern Research Institute, Birmingham, Ala. under the supervision of Dr. Daniel Griswold. The protocols were the same as those published previously (Geran et al., Cancer Chemotherapy Reports 3: No. 2, 1972 [Attachment 11]). 10^5 cells were implanted intraperitoneally in CD2Fl male mice on Day 0. Drug treatments were given intraperitoneally as single injections at the doses indicated on Days 1, 5 and 9 after tumor implantation. The diluent was saline except for NSC-271674 where 5% sodium bicarbonate was used. All drugs were prepared fresh on the day of injection, and all were administered in solution. Median survival times for both control and drug-treated mice were determined and expressed as a percentage (% T/C). Body weights were determined on Day 5 and expressed as a weight difference (body weight of the drug-treated animals minus that of the control animals in grams) (T-C). The diluent control animals lived a median of 8.4 days and gained 1.9 grams by Day 5 in this experiment. All animals, including Day 30 survivors, were used in the calculation of median survival times. The log10 change in tumor burden refers to the net log change in viable tumor cell population at the end of therapy (Rx) as compared to the start of therapy; e.g., a […] means that there was a […] and a 3 log change means there was a 1000-fold increase in tumor burden at the end of therapy. The tumor burden at the start of therapy was about 6.1×10^5 cells in this experiment.
# [3] = tested on: IP L1210; experiment: Activity against IP-implanted L1210 leukemia sensitive to cisplatin, 30 day test (Table 3); type: in vivo, Female CD2Fl mice
# Description: as §1
# Other known mechanisms of resistance for other classes of agents, such as gene amplification or target enzyme change or amplication, also need to be explored. The experiments summarized in Table 3 were conducted at the same time against both sublines using the same drug preparations. […] These experiments were repeated in a second laboratory as documented in Table 4. However, in these experiments the animals were held for 60 rather than 30 days to evaluate whether or not long-term survivors are produced after drug treatment in a more challenging setting.
# as §2
# These experiments (A8-00008 3LE31 and A8-00001 3DP31) were conducted concurrently at the Southern Research Institute, Birmingham, Ala. under the supervision of Dr. Daniel Griswold. See Table 4 for experimental details. The diluent control animals bearing L1210 leukemia lived a median of 8.6 days and gained 1.3 grams by Day 5. […] Female CD2Fl mice were used for these experiments.
structure (smiles),measurement,setting,value
"N[C@@H]1CCCC[C@H]1N.O=C([O-])c1ccc(C(=O)[O-])c(C(=O)[O-])c1.[H+].[Pt+2] [Carboxyphthalato Platinum, carboxyphthalatocyclohexanediamine platinum (II), reference compound]",Body Weight Difference,[1]; 6.25 mg/kg/inj IV,-2.6 Grams
same,Median % T/C,[1]; 6.25 mg/kg/inj IV,124%
same,Median Survival Time,[1]; 6.25 mg/kg/inj IV,12.8 days
same,Body Weight Difference,[1]; 12.5 mg/kg/inj IV,-6.1 Grams
same,Median % T/C,[1]; 12.5 mg/kg/inj IV,165%
same,Median Survival Time,[1]; 12.5 mg/kg/inj IV,17.0 days
same,HNTD (highest nontoxic dose; animal weight difference ≥ -4.0 grams),[1]; IV once daily Days 1-5,6.25 mg/kg/inj
same,Optimal Dose,[1]; IV once daily Days 1-5,12.5 mg/kg/inj
same,30-Day Survivors/Total,[2]; 3.13 mg/kg/dose IP,0/6
same,Approx. Log10 Change in Tumor Burden at End of Rx,[2]; 3.13 mg/kg/dose IP,~2.5 log10
same,Body Weight Difference,[2]; 3.13 mg/kg/dose IP,-0.5 Grams
same,Median % T/C,[2]; 3.13 mg/kg/dose IP,146%
same,30-Day Survivors/Total,[2]; 6.25 mg/kg/dose IP,0/6
same,Approx. Log10 Change in Tumor Burden at End of Rx,[2]; 6.25 mg/kg/dose IP,~2.3 log10
same,Body Weight Difference,[2]; 6.25 mg/kg/dose IP,-0.8 Grams
same,Median % T/C,[2]; 6.25 mg/kg/dose IP,154%
same,30-Day Survivors/Total,[2]; 12.5 mg/kg/dose IP,2/6
same,Approx. Log10 Change in Tumor Burden at End of Rx,[2]; 12.5 mg/kg/dose IP,-5.7 log10
same,Body Weight Difference,[2]; 12.5 mg/kg/dose IP,-2.1 Grams
same,Median % T/C,[2]; 12.5 mg/kg/dose IP,309%
same,30-Day Survivors/Total,[2]; 25 mg/kg/dose IP,4/6
same,Approx. Log10 Change in Tumor Burden at End of Rx,[2]; 25 mg/kg/dose IP,-5.7 log10
same,Body Weight Difference,[2]; 25 mg/kg/dose IP,-1.5 Grams
same,Median % T/C,[2]; 25 mg/kg/dose IP,357%
same,30-Day Survivors/Total,[2]; 50 mg/kg/dose IP,2/6
same,Approx. Log10 Change in Tumor Burden at End of Rx,[2]; 50 mg/kg/dose IP,-5.7 log10
same,Body Weight Difference,[2]; 50 mg/kg/dose IP,-5.0 Grams
same,Median % T/C,[2]; 50 mg/kg/dose IP,345%
same,Body Weight Difference,"[2]; 50 mg/kg/dose IP, listed as carboxyphthalato cyclohexanediamine platinum (II)",more than -4 Grams
same,30 Day Survivors/Total,[3]; 3.13 mg/kg/dose,1/6
same,Approx. Log10 Change in Tumor Burden at End of RX,[3]; 3.13 mg/kg/dose,~1.4 log10
same,Median % T/C,[3]; 3.13 mg/kg/dose,174%
same,30 Day Survivors/Total,[3]; 6.25 mg/kg/dose,5/6
same,Approx. Log10 Change in Tumor Burden at End of RX,[3]; 6.25 mg/kg/dose,~-5.9 log10
same,Median % T/C,[3]; 6.25 mg/kg/dose,348%
same,30 Day Survivors/Total,[3]; 12.5 mg/kg/dose,6/6
same,Approx. Log10 Change in Tumor Burden at End of RX,[3]; 12.5 mg/kg/dose,~-5.9 log10
same,Median % T/C,[3]; 12.5 mg/kg/dose,348%
same,30 Day Survivors/Total,[3]; 25 mg/kg/dose,0/6
same,Median % T/C,[3]; 25 mg/kg/dose,73%
same,30 Day Survivors/Total,[3]; 50 mg/kg/dose,0/6
same,Median % T/C,[3]; 50 mg/kg/dose,50%
